Data set [1] concerns isolated guinea pig ileum (histamine-induced contractions). The data set is described as follows: Block of histamine-induced contraction of the isolated guinea-pig ileum. To be noted: for minimal effective concentration: Cavia porcellus, isolated guinea pig ileum, histamine 10^-7 M, read-out: Effect on Histamine: minimum concentration required to show activity; for Effect on Histamine: block of contractions of isolated guinea pig ileum induced by histamine at 10^-7 M. Here is the method:
(§1) The compound of Example 2 was found in low concentrations to inhibit contractions of the guinea-pig isolated ileum and rat isolated stomach strip caused by histamine and 5-hydroxytryptamine respectively. […] Concomitantly, the depressor effects of histamine were blocked, as were the pressor effects of 5-hydroxytryptamine for over 30 minutes. The pressor effects of 5-hydroxytryptamine in anaesthetised and pithed rats were inhibited by intravenous doses of 0.3-1.0 mg/kg body weight. Slightly higher doses reduced the bradycardia and the depressor response (the Bezold-Jarisch reflex mediated by 5-HT3 receptors) to 5-hydroxytryptamine in anaesthetised rats. The drug inhibited oedema in the rat paw caused by intraplantar 5-hydroxytryptamine. […] In mice it inhibited diarrhoea caused by L-5-hydroxytryptophan. In guinea pigs, intravenous doses of 0.03 mg/kg and above reduced the bronchoconstrictor effects of histamine and 5-hydroxytryptamine.
(§2) Compounds according to formula I were tested for their ability to block contractions of the isolated guinea pig ileum induced by KCl, carbachol, or histamine at a concentration of 10^-7 M. Ileum preparations were prepared according to standard methodology. The concentrations shown are the minimum required to show activity.

Data set [2] has as its system depressor effects of histamine. The data set is described as follows: Effects of histamine in cats. The format is in vivo, cat. The following applies: intravenous. Here is the method: as §1
(§3) In cats, the effects of the ganglion stimulant McNeil -A-343 and histamine were reduced. Following intravenous injection into guinea-pigs, […] reduced histamine and 5-hydroxytryptamine induced broncho-constriction. Concentrations of 1 μg/ml or greater relaxed the isolated rat uterus in vitro.
(§4) The compound of Example 4 when injected into rats at intravenous doses of 0.3 mg/kg or greater reduced the pressor effects of 5-hydroxytryptamine and also the depressor effects of histamine. In cats, the effect of histamine was reduced after these doses also.

The test system of data set [3] is isolated guinea pig ileum (KCl-induced contractions). The data set is described as follows: Block of KCl-induced contraction of the isolated guinea-pig ileum. To be noted: block of contractions of isolated guinea pig ileum induced by KCl. How it is done: as §2
For data set [4], the system named is depressor effects of histamine. The data set is described as follows: Depressor effects of histamine in rats. The format is in vivo, rat. How it is done:
as §1, §4

Data set [5] concerns bronchoconstrictor effects of histamine and 5-hydroxytryptamine. The data set is described as follows: Histamine and 5-hydroxytryptamine induced bronchoconstriction in guinea pigs. The format is in vivo, guinea pig. The following applies: Cavia porcellus, intravenous, read-out: Intravenous dose reducing histamine and 5-hydroxytryptamine bronchoconstriction. How it is done:
as §1, §3, §4
(§5) Thus doses of 1 mg/kg given intraperitoneally attenuated the facilitation of spinal reflex activity caused by p-chloroamphetamine, and also the facilitation of spinal reflexes induced by fenfluramine in spinal and decerebrate rats. […] The drug in doses of 10 and 20 mg/kg intraperitoneally and in doses of 20 mg/kg by mouth attenuated morphine-induced catalepsy. We conclude therefore that this drug is an orally active drug with central actions, particularly affecting serotonergic mechanisms, but has no effect in vitro (Table 1). […] Thus it was found after intravenous doses of 0.03 mg/kg to reduce histamine and 5-hydroxytryptamine bronchoconstriction in the guinea pig.

Data set [6] relates to isolated guinea pig ileum (carbachol-induced contractions). The data set is described as follows: Block of carbachol-induced contraction of the isolated guinea-pig ileum. The following applies: block of contractions of isolated guinea pig ileum induced by carbachol. How it is done: as §2
In data set [7] the test system is arterial blood pressure and heart rate. The data set is described as follows: Arterial blood pressure and heart rate in guinea pigs after intravenous doses. The format is in vivo, guinea pig. The following applies: intravenous 0.01 mg/kg or greater.
The subject of data set [8] is pressor effects of 5-hydroxytryptamine. The data set is described as follows: Pressor effects of 5-hydroxytryptamine in rats. The format is in vivo, rat. To be noted: for minimal effective dose: rat, intravenous, read-out: Intravenous dose depressing/reducing the pressor responses to 5-hydroxytryptamine. Here is the method:
as §1, §3, §4

The test system of the next data set is isolated rat uterus. The data set is described as follows: Isolated rat uterus in vitro.
In data set [9] the test system is 5-HT3 receptors (Bezold-Jarisch reflex). The data set is described as follows: Bradycardia and depressor response (Bezold-Jarisch reflex) to 5-hydroxytryptamine in anaesthetised rats. The format is in vivo, rat. To be noted: doses slightly higher than 0.3-1.0 mg/kg i.v. How it is done:
as §1

The test system of data set [10] is arterial blood pressure and heart rate. The data set is described as follows: Arterial blood pressure, heart rate and pressor responses to noradrenaline, sympathetic nerve stimulation and tyramine after intravenous injection into cats. The format is in vivo, cat.
Data set [11] has as its system rat isolated stomach strip (5-hydroxytryptamine-induced contractions). The data set is described as follows: Contractions of rat isolated stomach strip caused by 5-hydroxytryptamine. How it is done:
as §1

In data set [12] the test system is pressor effects of 5-hydroxytryptamine. The data set is described as follows: Pressor effects of 5-hydroxytryptamine in cats. The format is in vivo, cat. The following applies: intravenous 0.1 mg/kg or greater. Here is the method:
as §1

The test system of data set [13] is diarrhoea caused by L-5-hydroxytryptophan. The data set is described as follows: Diarrhoea caused by L-5-hydroxytryptophan in mice. The format is in vivo, mouse. Here is the method:
as §1

Data set [14] concerns rat paw oedema caused by 5-hydroxytryptamine. The data set is described as follows: Oedema in the rat paw caused by intraplantar 5-hydroxytryptamine. The format is in vivo. How it is done: as §1
Data set [15] can be described thus: Penetration into the central nervous system. The format is in vivo. To be noted: concluded from four CNS test situations.
Data set [16] relates to central nervous system (spinal flexor reflex). The data set is described as follows: Spinal flexor reflex in the rat. The format is in vivo. To be noted: mianserin in low doses.
For data set [17], the system named is central nervous system (morphine induced catalepsy). The data set is described as follows: Morphine induced catalepsy in the rat. The following applies: rat; mianserin in low doses. The format is in vivo. Here is the method: as §5
Data set [18] relates to central nervous system (L-5-hydroxytryptophan-induced head twitch). The data set is described as follows: L-5-hydroxytryptophan-induced head twitch in the mouse. The format is in vivo. The following applies: mianserin in low doses.
The test system of data set [19] is arterial blood pressure and heart rate. The data set is described as follows: Arterial blood pressure, heart rate and pressor responses to noradrenaline, sympathetic nerve stimulation and tyramine after intravenous injection into rats. The format is in vivo, rat. To be noted: for minimal effective dose: intravenous.
The subject of a further data set is conscious cats. The data set is described as follows: Behavioural changes and acute toxicity in the cat. The format is in vivo.
The subject of data set [20] is effects of the ganglion stimulant McNeil -A-343. The data set is described as follows: Effects of the ganglion stimulant McNeil-A-343 in cats. The format is in vivo, cat. How it is done: as §3
Setting [21] is: intravenous 0.1 mg/kg or greater.
The mark [22] stands for this setting: rats, intravenous 0.1 mg/kg or greater.

Data on 3 molecules can be found in patent publication US5049637A, “1,2,3,4,10,14b-hexahydrodibenzo[c,f]pyrazino-[1,2-a]azepino derivatives and 10-aza, 10-oxa and 10-thia analogues” (Monash University, priority 1987, dated 1991).

Each structure is given as a SMILES string. Where a name gives a salt, the structure may show the parent alone. Where only a bound is given, the exact number is not on record here.

In the case of `NC(=S)N1CCN2c3ccccc3Cc3ccccc3C2C1` (stereo not shown) [Example 4, 2-Thiocarboxamido-1,2,3,4,10,14b-hexahydrodibenzo [c,f]pyrazino[1,2-a]azepine], in data set [1], the minimal effective concentration fell in the range of 0.01 to 0.1 µM. Also, the “Effect on Histamine” value in data set [1] is “++”. Further, the “Effects of histamine (depressor) in cats” value in data set [2] was “reduced”. The “Effect on KCl” value in data set [3] is on record as “- (no effect)”. For the same molecule, the minimal effective dose in data set [4] (Rattus norvegicus, intravenous, read-out: Intravenous dose reducing the depressor effects of histamine) is not below 0.3 mg/kg; in data set [5], not below 0.01 mg/kg; in data set [8], not below 0.3 mg/kg. Besides, the “Effect on Carbachol” value in data set [6] is “- (no effect)”. Besides, in data set [7], the “Effects on arterial blood pressure and heart rate compared with the compound of Example 2” value is “smaller effects”. Moreover, in the data set on isolated rat uterus, the “Concentration reducing contractions of the isolated rat uterus caused by 5-hydroxytryptamine or high potassium concentrations” value is not below 0.1 µg/mL. For the same molecule, the Anti-spasmodic action result with isolated rat uterus (0.1 μg/ml or greater) is “anti-spasmodic action”.

`N=C(N)N1CCN2c3ccccc3Cc3ccccc3C2C1` (stereo not shown) [Example 2, 2-Carboxamidino-1,2,3,4,10,14b-hexahydrodibenzo [c,f]pyrazino[1,2-a]azepineHydrochloride]: the “Bradycardia and depressor response (Bezold-Jarisch reflex) to 5-hydroxytryptamine” value in data set [9] is listed as “reduced”. For the same molecule, in data set [1], the minimal effective concentration is 0.01 µM. Besides, in data set [1], the “Effect on Histamine” value is listed as “++”. Further, the “Nature of the antagonism to histamine” value in data set [1] (guinea-pig isolated ileum, relatively resistant to washing) was “persistent and non-competitive”. The “Contractions of the guinea-pig isolated ileum caused by histamine” value in data set [1] (low concentrations) is listed as “inhibit”. Moreover, the minimal effective dose in data set [10] (Felis catus, intravenous, read-out: Intravenous dose causing long-lasting rises in arterial blood pressure and heart rate) is not below 0.1 mg/kg; in data set [5], not below 0.03 mg/kg; in data set [19] (Rattus norvegicus, rats, read-out: Intravenous dose causing long-lasting rises in arterial blood pressure and heart rate) it was not below 0.1 mg/kg. The “Pressor responses of the indirectly acting sympathomimetic agent tyramine” value in data set [10] (setting [21]) and in data set [19] (setting [22]) was “blockade” in each case. Further, the “Pressor responses to noradrenaline and sympathetic nerve stimulation” value in data set [10] (setting [21]) and in data set [19] (setting [22]) was “potentiation” each time. Besides, in data set [2], the “Effects of histamine (depressor) in cats” value is listed as “blocked”. Moreover, the “Contractions of rat isolated stomach strip caused by 5-hydroxytryptamine” value in data set [11] (low concentrations) was “inhibit”. Moreover, the “Nature of the antagonism to 5-hydroxytryptamine” value in [11] (rat isolated stomach strip, relatively resistant to washing) is “persistent and non-competitive”. Moreover, the “Depressor effects of histamine” value in data set [4] (setting [21]) was “blocked”. The “Duration of block of the pressor effects of 5-hydroxytryptamine” value in data set [12] and in data set [8] (setting [22]) was “over 30 minutes” throughout. The “Diarrhoea caused by L-5-hydroxytryptophan” value in [13] is reported as “inhibited”. Moreover, in data set [14] (oral and subcutaneous), the “Oedema in the rat paw caused by intraplantar 5-hydroxytryptamine” value is “inhibited”. In addition, in data set [14] (rat paw oedema), the “Oral absorption indicated by ratio of oral to subcutaneous dose” value was “relatively good oral absorption”. Besides, the “Effect on Carbachol” value in data set [6] was “- (no effect)”. The “Penetration into the central nervous system” value in [15] was “does not penetrate into the central nervous system”. The “Action in spinal flexor reflex test” value in data set [16] is listed as “failed to demonstrate any inhibitory or other actions”. Also, the “Action in morphine induced catalepsy test” value in [17] is recorded as “failed to demonstrate any inhibitory or other actions”. For the same molecule, the “Action in L-5-hydroxytryptophan-induced head twitch test” value in [18] is given as “failed to demonstrate any inhibitory or other actions”. Besides, in the data set on conscious cats (cat), the “Action on the central nervous system: behavioural changes in the cat” value was “failed to demonstrate any inhibitory or other actions”. The “Overt behavioural changes or acute toxicity” value in the data set on conscious cats (conscious cats, relatively large subcutaneous doses) is listed as “No overt behavioural changes or acute toxicity”.

On to `c1ccc2c(c1)Cc1ccccc1N1CCN(C3=NCCN3)CC21` (stereo not shown) [Example 3, 2-(2-Imidazolino)-1,2,3,4,10,14b-hexahydrodibenzo [c,f]pyrazino[1,2-a]azepine p-toluenesulphonate], for which the “Effects of the ganglion stimulant McNeil -A-343” value in data set [20] is on record as “reduced”. For the same molecule, the minimal effective concentration is 0.01 µM in data set [1] and not below 1 µg/mL in the data set with isolated rat uterus (Rattus norvegicus, read-out: Concentration relaxing the isolated rat uterus). The “Effect on Histamine” value in data set [1] is “++”. Besides, in data set [2], the “Effects of histamine (depressor) in cats” value was “reduced”. Besides, the “Effect on KCl” value in data set [3] is recorded as “- (no effect)”. Also, the minimal effective dose in data set [5] is 0.01 mg/kg; in [8], not below 0.1 mg/kg; in [19] (rat, read-out: Intravenous dose causing rises in arterial blood pressure), not below 0.1 mg/kg. The “Effect on Carbachol” value in data set [6] was “- (no effect)”.
